# Test results published in US12594256B2, “A19-144, A2-73 and certain anticholinesterase inhibitor compositions and method for anti-seizure therapy” (priority 2014, dated 2026).
# Read-outs that look alike come from different tables or passages of the source.
# How the values were obtained:
# NMDA receptors = conditions: screening profile; cited from earlier work
# Aβ25-35-induced toxicity [1] = experiment: Aβ25-35 model, pre- and post-peptide administration schedules (Y maze, passive avoidance, hippocampal lipid peroxidation); type: in vivo, mice; conditions: for anti-amnesic and neuroprotective effect against amyloid toxicity: drug administered before or after the amyloid peptide challenge
# σ1 = σ1 (Homo sapiens, UniProt Q99720); conditions: as compared with σ1 sites (so in the source); cited from earlier work
# Sequence of σ1 (Q99720 whole entry): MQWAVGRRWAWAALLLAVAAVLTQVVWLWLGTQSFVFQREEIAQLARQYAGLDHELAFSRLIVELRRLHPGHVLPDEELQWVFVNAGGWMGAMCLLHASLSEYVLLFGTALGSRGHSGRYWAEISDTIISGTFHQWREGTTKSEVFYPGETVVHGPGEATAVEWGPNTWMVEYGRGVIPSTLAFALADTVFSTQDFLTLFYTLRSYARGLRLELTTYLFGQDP
# Aβ25-35-induced toxicity [2] = conditions: cited from earlier work
# seizures = experiment: Seizure prophylaxis in single subjects (Examples 1-6); type: in vivo, human
# Experimental: A person is experiencing 4 to 7 seizures per day with a baseline of 6.6 seizures per day. A19-144 is administered daily at 2.0 mg for 5 days.
# The subject is administered low dose donepezil (4 mg daily) for 5 days cotimely with continued A19-144 administration daily at 2.0 mg for 5 days.
# A person is experiencing 6 to 8 seizures per day with a baseline of 6.6 seizures per day. A19-144 is administered daily at 2.0 mg for 5 days.
# The subject is administered low dose Eslicarbazepine acetate at 600 mg/day; for 5 days cotimely with continued A19-144 administration daily at 2.0 mg for 5 days.
# A person is experiencing seizures 3.2 per day. The subject is administered lacosamide at 60 mg two times per day for 5 days and cotimely administration of A19-144 daily at 2.0 mg for 5 days.
# The person is experiencing an average of 3.3 seizures per day. The subject is administered Levetiracetam at 400 mg two times per day for 5 days and cotimely administration of 3.0 mg of A19-144 daily for 5 days.
# σ2 sites = σ2 sites (Homo sapiens, UniProt Q5BJF2); conditions: reported binding analyses; cited from earlier work
# Sequence of σ2 sites (Q5BJF2 whole entry): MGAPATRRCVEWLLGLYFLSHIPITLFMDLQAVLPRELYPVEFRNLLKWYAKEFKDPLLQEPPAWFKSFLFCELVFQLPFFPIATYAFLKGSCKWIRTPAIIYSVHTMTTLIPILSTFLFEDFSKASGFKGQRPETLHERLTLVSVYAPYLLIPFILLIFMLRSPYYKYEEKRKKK
# sodium channel site 2 = conditions: screening profile; cited from earlier work
# [3] = target: muscarinic M1-M4 receptors; conditions: screening profile; cited from earlier work
# [4] = Pharmacokinetics of metabolite AV19-144 in plasma after oral AV2-73 (LC-MS/MS); type: in vivo; conditions: for MRT: read-out: mean residence time of AV19-144
# Experimental: After separation from human plasma analytes were injected into a LC-MS/MS. […] A weighted (1/x) regression 2nd order was performed to determine the concentration of the analytes. The study was conducted in accordance with the Principles of Good Laboratory Practice (GLP) as described under § 19, German Chemical Law. The validation based on the EG-Dok.
# sigma-1 receptors = sigma-1 receptors (Homo sapiens, UniProt Q99720); conditions: believed to bind; cited from earlier work
# Sequence of sigma-1 receptors (Q99720 whole entry): as the sequence (Q99720 whole entry) above
# [5] = system: muscarinic acetylcholine receptors; conditions: believed to bind; cited from earlier work
# [6] = 0.3 mg/kg ip once a day, day 7 to day 13 after Aβ25-35, measured 14 days after Aβ25-35
# [7] = 0.1 or 0.3 mg/kg ip once a day, day -7 to day -1 before Aβ25-35, 7 days after Aβ25-35
structure (smiles),measurement,setting,value
"CN(C)CC1CCOC1(c1ccccc1)c1ccccc1.Cl (centres unmarked) [A2-73, 1-(2,2-diphenyltetrahydrofuran-3-yl)-N,N-dimethylmethanamine hydrochloride]",IC50,NMDA receptors,8 µM
same,anti-amnesic and neuroprotective effect against amyloid toxicity,Aβ25-35-induced toxicity [1],effective in pre- and post-protection
same,selectivity for the σ1 subtype,σ1,better selectivity for the σ1 subtype
same,Aβ25-35-induced endogenous Aβ1-42 seeding,Aβ25-35-induced toxicity [2]; reported,decreasing
same,results of Examples 1 through 6 (seizure prophylaxis),seizures; A2-73 substituted for A19-144,similarly effective
same,affinity for σ2 sites,σ2 sites,no affinity
same,IC50,sodium channel site 2,5.1 µM
same,IC50,[3],3.3 to 5.2 µM
same,biotransformation of AV2-73 to main metabolite AV19-144,[4]; after oral administration,rapid and extensive biotransformation
"CNCC1CCOC1(c1ccccc1)c1ccccc1.Cl (centres unmarked) [A19-144, 1-(2,2-diphenyltetrahydrofuran-3-yl)-N-methylmethanamine hydrochloride]",lipid peroxidation increase,Aβ25-35-induced toxicity [1]; [6],effective
same,memory deficits,Aβ25-35-induced toxicity [1]; [6],effective
same,Aβ25-35-induced lipid peroxidation in the hippocampus,Aβ25-35-induced toxicity [1]; [7],blocks
same,Aβ25-35-induced memory deficits (spontaneous alternation in the Y maze and passive avoidance response),Aβ25-35-induced toxicity [1]; [7],blocks
same,anti-amnesic and neuroprotective effect against amyloid toxicity,Aβ25-35-induced toxicity [1],effective in pre- and post-protection
same,Aβ25-35-induced toxicity and learning impairments,Aβ25-35-induced toxicity [1]; injected repeatedly one week after the peptide,able to reverse
same,Aβ25-35-induced P-Akt decrease and P-GSK-3β increase,Aβ25-35-induced toxicity [2]; Lahmy et al. 2013,blocked
same,hyperphosphorylation of Tau on physiological (AT-8) and pathological (AT-100) epitopes,Aβ25-35-induced toxicity [2]; in the dose-range tested,attenuated
same,"oxidative stress, caspases induction, cellular loss and learning and memory deficits",Aβ25-35-induced toxicity [2]; mice one week after injection of oligomeric Aβ25-35 (Villard et al. 2011),attenuating
same,neuroprotection against amyloid toxicity,"Aβ25-35-induced toxicity [2]; mice, reported",neuroprotective potential
same,seizures per day,"seizures; Example 1: person, baseline 6.6 per day, 2.0 mg daily for 5 days, for 8 weeks post dosing",2.2 per day
same,seizures per day,"seizures; Example 3: person, baseline 6.6 per day, 2.0 mg daily for 5 days, for 8 weeks post dosing",1.2 per day
same,seizures per day,"seizures; person of Example 1, at 6 months post dosing",2.2 per day
same,seizures per day (average),"seizures; person of Example 3, at 6 months post dosing",1.2 per day
same,affinity for sigma-1 receptors,sigma-1 receptors,low micromolar range
same,affinity for muscarinic acetylcholine receptors,[5],low micromolar range
same,Cmax,"[4]; human, oral, across the 10 to 60 mg AV2-73 dose steps, plasma, FIG. 1",1.31 to 22.3 ng/mL
same,half-life,"[4]; human, oral, across the 10 to 60 mg AV2-73 dose steps, plasma, FIG. 1, read-out: mean terminal elimination half-life t1/2 of AV19-144",514 to 1720 min
same,MRT,"[4]; human, plasma, oral, after 10 mg AV2-73, FIG. 2",14.3 h
same,MRT,"[4]; human, plasma, oral, after 60 mg AV2-73, FIG. 2",42.7 h
